According to US6432973B1, “Water soluble rapamycin esters” (Wyeth, priority 2000, dated 2002):
In brackets after ≈: the same amount, converted by molar mass.

What was measured:
[1] = test system: U87MG human glioblastoma cells; test: inhibition of U87MG human glioblastoma cell growth (3H-thymidine incorporation); assay type: cell-based; conditions: U-87 MG, 48 hours incubation
Experimental: The antitumor activity of the compounds of this invention were confirmed in a standard pharmacological test procedure which measures the inhibition of U87MG human glioblastoma cell growth (as a function of ^3H-thymidine incorporation), using CCl-779-PEG 5000 ester (Compound III) and CCl-779-(PEG 5000)2 ester (Compound IV) as representative compounds of this invention. The following briefly describes the procedure used and results obtained. U87MG human glioblastoma cells (ATCC #HTB-14; available from the American Type Culture Collection; 10801 University Boulevard; Manassas, Va. 20110;), were grown in the following media.
Growth Medium: BRL Minimum Essential Medium with Earle Salts (500 mL)
+5 mL BRL MEM Non-Essential Amino Acids (10 mM)
+5 mL BRL Na Pyruvate Solution (100 mM)
+5 mL BRL L-Glutamine 200 mM
+50 mL BRL Fetal Bovine Serum (Qualified)
1. Cells were trypsinized and plated at a concentration of 10^4 cells/well in a final volume of 200 μL growth medium in 96-well flat bottom plates and allowed to adhere for 24 hours at 37° C.
2. The media was removed by aspiration with care to not disturb the cell monolayer. 200 μL of fresh growth media was added per well, allowing enough wells for samples to be run in triplicate. Test compounds were added in 10 μL phosphate buffer solution (PBS) and incubated for another 48 hours at 37° C.
3. […]
4. […] Mats were counted in a Wallac Betaplate counter.

[2] = water solubility; assay type: physicochemical
Source text: Such doses may be administered in any manner useful in directing the active compounds herein to the recipient's bloodstream, including orally, via implants, parenterally (including intravenous, intraperitoneal and subcutaneous injections), rectally, intranasally, vaginally, and transdermally. […] This advantage is particularly important for oral and parenteral administration.

- IC50 [1]: 0.6 ng/mL (≈ 0.582 nM)
- solubility [2]: < 1.1 µg/mL
SMILES: CO[C@H]1C[C@@H]2CC[C@@H](C)[C@@](O)(O2)C(=O)C(=O)N2CCCC[C@H]2C(=O)O[C@H]([C@H](C)C[C@@H]2CC[C@@H](OC(=O)C(C)(CO)CO)[C@H](OC)C2)CC(=O)[C@H](C)/C=C(\C)[C@@H](O)[C@@H](OC)C(=O)[C@H](C)C[C@H](C)/C=C/C=C/C=C/1C [CCI-779, rapamycin 42-ester with 3-hydroxy-2-(hydroxymethyl)-2-methylpropionic acid]
